Consider three compounds from publication PMC5761851, “Application of a phenotypic drug discovery strategy to identify biological and chemical starting points for inhibition of TSLP production in lung epithelial cells” (PLoS ONE, 2018).

Experiment [1] deals with TSLP production in NHBE cells. Description: TSLP HTRF assay (TSLP production in poly I:C / IL-4 stimulated NHBE cells). Details: Inhibition of TSLP production in NHBE (% as indicated): concentration or dose not given beside the values. The note with it: for pIC50: NHBE, representative curve, read-out: IC50. It is filed as cell-based, human. On the procedure: For dose response curves determinations, stocks of test compounds at a concentration of 1.33x10^-3 M in DMSO were sequentially diluted at 1:4 dilution steps before further 1/50 dilution in BEBM medium containing 1x ITS and 0.1% BSA. For the highest 4 μM concentration test compounds were resuspended in DMSO at a concentration of 2.5x10^-3 M and diluted 1/25 in BEBM medium containing 1x ITS and 0.1% BSA before adding 1 μl to the wells containing the cells.
All subsequent steps were automated using a Sciclone® G3 workstation (Perkin Elmer) with a Twister™ II robot (Perkin Elmer). […] 1 μl of test compound solution prepared at 25x concentration was added to the wells containing NHBE cells. The plates were then incubated during 90 minutes at 37°C, 5% CO2, 90% humidity before adding poly I:C (Invivogen HMW Tirl-pic-5) and human IL-4 (Peprotech 200–04) stimulus in 4 μl of BEBM medium containing 1x ITS, 0.1% BSA and 0.1% DMSO using a Multidrop™. […] Cells were then incubated for 24h in the presence of test compounds and stimulus at 37°C, 5% CO2 and 90% humidity conditions. After the 24h incubation period the plates were transferred to a CyBi®-Well platform (CyBio AG) to collect 10 μl of the supernatants which were transferred to a new plate. TSLP levels in the supernatant were determined using a homogeneous Time-Resolved Fluorescence (HTRF) assay custom developed by Cisbio. The assay was based in the use of a donor dye (europium cryptate) coupled to a monoclonal anti-TSLP antibody and an acceptor dye (d2) coupled to a second polyclonal anti-TSLP antibody. […] 10 μl of the resulting solution was then used to determine TSLP levels as described above.
The standard curve was built with eight points prepared in ITS/BSA in BEBM medium without supplements, starting at 700 pg/ml and diluted 1:2, with medium alone being zero TSLP. Fitting model corresponded to equation 100 of Excel fit software. Data from the primary phenotypic screen was visualized using Vortex (Dotmatics). […] For compound selection the maximum inhibition of the two individual duplicate values was taken into account. Dose response confirmation was performed at single point in the 2 donors tested. 9 point curves were run starting at 4 μM concentration by doing serial 1:4 dilutions in cells derived from both donors.

Experiment [2] concerns TBK1/IKKɛ, PDK-1, Aurora B, ERK8, MARK, NUAK1, MLK, c-Kit, CDK2/CyclinE, Chk1, GSK-3β, PKA, KDR, T-Fyn and PCK. Further details: method as in PMID 19307177. The note with it: read-out: IC50 on BX795 targets within the pharmacological range; cited from earlier work.
The next experiment deals with CHO-K1 cells. Description: CHO-K1 viability (ATPlite). The format is cell-based. Conditions: 3.12 μM. On the procedure:
The viability of NHBE and CHO-K1 cells was quantified using ATP as an indirect read out of the potential cytotoxicity of the compounds. […] Plates were shaken and covered with aluminium foil for 25 min. Luminescence was measured in an Envision reader (Perkin Elmer). Evaluation of viability in CHO-K1 cells was used as an internal compound cytotoxicity standard across cellular assays. […] The plates were incubated for 24 h at 37°C in 5% CO2. After the incubation period, the culture medium was removed and washed with 100 μl of DPBS. Test compounds were dissolved and serially diluted in 100% DMSO. A final 1/100 dilution of each concentration was performed using F12 culture medium with 0.5% FBS. A volume of 100 μl culture medium containing the compounds or 1% DMSO (for control wells) was added to the wells containing the cells and the plate was incubated again 24h. After 24h of compound exposure, cells were washed with DPBS. Then, 100 μl of PBS were added, followed by the addition of 100 μl of ATPlite™ reagent. The plate was shaken for 25 minutes using a microtiter plate shaker. Luminescence was measured using a Luminoskan Ascent luminometer (Thermo Fisher Scientific).
For CHO-K1 viability assays, a standard curve of cells was included in the plate. Luminescence values versus cell number were plotted and the data adjusted to a linear equation. Luminescence values of the samples were interpolated to obtain number of cells. IC50 values were obtained by non-linear regression using Activity Base software (IDBS) and a four-parameter log equation.

The target in the next experiment is T1, mTOR (Homo sapiens, UniProt P42345).
T1 construct: Eurofins Pharma Discovery Services (contract assay service)
The note with it: read-out: reported kinase inhibitory activity (IC50); cited from earlier work.

The test system of experiment [3] is TSLP production in NHBE cells. Description: TSLP HTRF assay (TSLP production in poly I:C / IL-4 stimulated NHBE cells). The format is cell-based, human. The note with it: individual values.
Experiment [4] concerns TSLP mRNA levels in NHBE cells. Description: TSLP mRNA real-time PCR (qPCR) in NHBE cells. The format is cell-based, human. Further details: TSLP mRNA upregulation (% versus control) / % Inhibition of mRNA: dose or concentration left out as unconfirmed.
[5] abbreviates: 4 μM, NHBE donor #1, average ± SD.

pIC50: −log10 of the molar value. “And” between values parts separate entries of the source, which are not always exact repeats. Equal values may be shown once. Read-outs that look alike come from different tables or passages of the source. Where only a bound is given, the exact number is not on record here.

Consider `O=C(NCCCNc1nc(Nc2cccc(NC(=O)N3CCCC3)c2)ncc1I)c1cccs1` [BX795, reference compound], for which the pIC50 in experiment [1] (Homo sapiens, donor #1) was 7.23; in experiment [1] (Homo sapiens, donor #2), 7.10; in experiment [2], > 6.00. The IC50 in experiment [1] (individual values, donor #1, read-out: Inhibition of TSLP production in NHBE (IC50, mM) by BX795, Donor #1) is 48 nM and 59 nM and 168 nM and 177 nM; in experiment [1] (individual values, donor #2, read-out: Inhibition of TSLP production in NHBE (IC50, mM) by BX795, Donor #2) it was 198 nM and 78 nM and 183 nM and 143 nM.

In the case of `CO[C@H]1C[C@@H]2CC[C@@H](C)[C@@](O)(O2)C(=O)C(=O)N2CCCC[C@H]2C(=O)O[C@H]([C@H](C)C[C@@H]2CC[C@@H](OCCO)[C@H](OC)C2)CC(=O)[C@H](C)/C=C(\C)[C@@H](O)[C@@H](OC)C(=O)[C@H](C)C[C@H](C)/C=C/C=C/C=C/1C` [Everolimus, reference compound], in experiment [1] (Homo sapiens, 0.031 μM, NHBE donor #1, read-out: Inhibition of TSLP protein production % Inhibition ± SD at), the inhibition at 0.031 µM was found to be 79.4%. The “Inhibition of TSLP production in NHBE (% as indicated)” value in experiment [1] (individual values, donor #1) is 62.23% and 73.18% and 78.84% and 103.38%. Further, in the experiment on CHO-K1 cells, the “Inhibition of CHO viability % Inhibition ± SD at 3.12 μM” value was -0.16% ± 2.3 (n = 4). Moreover, the pIC50 on mTOR is 8.70 to 9.00.

As to `CC(C)N(C(=O)CN1N=C(c2ccccc2)Cn2c(cc3ccccc32)C1=O)C(C)C` [compound 1], the “TSLP protein upregulation (% versus control at 4 µM)” value in experiment [1] (setting [5]) was 170 ± 62%; in experiment [3], 138.531% and 75.145% and 206.844% and 140.02% and 231.867% and 228.515%. Moreover, the “TSLP mRNA upregulation (% versus control at 4 μM)” value in experiment [4] (setting [5]) is on record as 452 ± 103%. In addition, the “TSLP mRNA upregulation (% versus control)” value in experiment [4] (individual values) was 525.82% and 378.87%.
